Assays:
[1] = Liquid, Vibrating tube method
[2] = mn = molality of the nth substance listed, in mol/kg; conditions: 101 kPa, Liquid, Vibrating tube method

CN1CCCN(C)C1=O [1,3-dimethyl-3,4,5,6-tetrahydro-2(1H)-pyrimidinone]
[1], 101.33 kPa
Conditions | mass density [kg/m3]
278.15 K | 1076.18
288.15 K | 1067.81
298.15 K | 1059.46
308.15 K | 1051.12
313.15 K | 1046.95
318.15 K | 1042.78

CN1CCCN(C)C1=O [1,3-dimethyl-3,4,5,6-tetrahydro-2(1H)-pyrimidinone] + O
mass density [kg/m3], [2]
Conditions | 278.15 K | 288.15 K | 298.15 K | 308.15 K | 313.15 K | 318.15 K
m1 = 0.03864 | 1000.41 | 999.51 | 997.43 | 994.38 | 992.55 | 990.54
m1 = 0.07586 | 1000.85 | 999.91 | 997.79 | 994.72 | 992.88 | 990.86
m1 = 0.1037 | 1001.18 | 1000.21 | 998.07 | 994.98 | 993.12 | 991.09
m1 = 0.1575 | 1001.83 | 1000.8 | 998.61 | 995.48 | 993.6 | 991.55
m1 = 0.2215 | 1002.6 | 1001.51 | 999.26 | 996.08 | 994.18 | 992.11
m1 = 0.2812 | 1003.34 | 1002.17 | 999.87 | 996.64 | 994.72 | 992.63
m1 = 0.407 | 1004.9 | 1003.6 | 1001.17 | 997.84 | 995.87 | 993.74
m1 = 0.5303 | 1006.46 | 1005.01 | 1002.46 | 999.04 | 997.02 | 994.85
m1 = 0.6771 | 1008.32 | 1006.7 | 1004.01 | 1000.47 | 998.39 | 996.17
m1 = 0.8298 | 1010.25 | 1008.46 | 1005.62 | 1001.96 | 999.83 | 997.56
m1 = 0.9878 | 1012.23 | 1010.27 | 1007.28 | 1003.5 | 1001.31 | 998.99

CN1CCCN(C)C1=O [1,3-dimethyl-3,4,5,6-tetrahydro-2(1H)-pyrimidinone] + [2H]O[2H]
mass density [kg/m3], [2]
Conditions | 278.15 K | 288.15 K | 298.15 K | 308.15 K | 313.15 K | 318.15 K
m1 = 0.0599 | 1105.6 | 1105.78 | 1104.3 | 1101.53 | 1099.72 | 1097.69
m1 = 0.08344 | 1105.61 | 1105.76 | 1104.25 | 1101.47 | 1099.64 | 1097.6
m1 = 0.1212 | 1105.63 | 1105.73 | 1104.18 | 1101.36 | 1099.52 | 1097.47
m1 = 0.1641 | 1105.66 | 1105.71 | 1104.11 | 1101.25 | 1099.39 | 1097.32
m1 = 0.2214 | 1105.72 | 1105.69 | 1104.03 | 1101.11 | 1099.23 | 1097.13
m1 = 0.3291 | 1105.85 | 1105.68 | 1103.9 | 1100.88 | 1098.96 | 1096.82
m1 = 0.5024 | 1106.17 | 1105.76 | 1103.77 | 1100.59 | 1098.6 | 1096.39
m1 = 0.6557 | 1106.53 | 1105.89 | 1103.73 | 1100.4 | 1098.34 | 1096.07
m1 = 0.7789 | 1106.85 | 1106.03 | 1103.73 | 1100.28 | 1098.17 | 1095.85
m1 = 0.9405 | 1107.31 | 1106.25 | 1103.76 | 1100.16 | 1097.99 | 1095.61
m1 = 1.074 | 1107.69 | 1106.44 | 1103.81 | 1100.09 | 1097.86 | 1095.43

[2H]O[2H] [water-d2]
[1], 101 kPa
Conditions | mass density [kg/m3]
278.15 K | 1105.59
288.15 K | 1105.85
298.15 K | 1104.43
308.15 K | 1101.72
313.15 K | 1099.93
318.15 K | 1097.92

[2H]O[2H] [water-d2] + CN1CCCN(C)C1=O
[2], m2 = 0
Conditions | mass density [kg/m3]
278.15 K | 1105.59
288.15 K | 1105.85
298.15 K | 1104.43
308.15 K | 1101.72
313.15 K | 1099.93
318.15 K | 1097.92

Reference: the NIST ThermoML archive (doi:10.1016/j.tca.2010.11.002)
